Source: US11897880B2, “7,8-dihydrobenzo[e]pyrido[3,4-c]azocine-2,5(3H,6H)-dione derivatives useful as a factor XIa inhibitors” (Janssen Pharmaceutica NV, priority 2021, dated 2024)
Read-outs that look alike come from different tables or passages of the source.

Tests used:
Factor XIa = Factor XIa (Homo sapiens, UniProt P03951); assay: Factor XIa inhibition assay utilizing a fluorophore-quencher pair peptide substrate (FLINT); format: biochemical; settings: for IC50: read-out: FXIa IC50; for Ki: read-out: FXIa Ki
Sequence of Factor XIa (P03951 388-625 limits assumed): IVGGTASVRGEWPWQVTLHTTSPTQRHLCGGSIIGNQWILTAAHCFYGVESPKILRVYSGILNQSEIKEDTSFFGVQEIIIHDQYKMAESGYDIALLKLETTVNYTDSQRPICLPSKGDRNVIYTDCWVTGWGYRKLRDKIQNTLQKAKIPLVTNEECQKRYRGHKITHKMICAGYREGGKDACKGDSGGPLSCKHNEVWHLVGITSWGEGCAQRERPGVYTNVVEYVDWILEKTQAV
Sequence of Factor XIa (P03951 19-387 partner limits assumed): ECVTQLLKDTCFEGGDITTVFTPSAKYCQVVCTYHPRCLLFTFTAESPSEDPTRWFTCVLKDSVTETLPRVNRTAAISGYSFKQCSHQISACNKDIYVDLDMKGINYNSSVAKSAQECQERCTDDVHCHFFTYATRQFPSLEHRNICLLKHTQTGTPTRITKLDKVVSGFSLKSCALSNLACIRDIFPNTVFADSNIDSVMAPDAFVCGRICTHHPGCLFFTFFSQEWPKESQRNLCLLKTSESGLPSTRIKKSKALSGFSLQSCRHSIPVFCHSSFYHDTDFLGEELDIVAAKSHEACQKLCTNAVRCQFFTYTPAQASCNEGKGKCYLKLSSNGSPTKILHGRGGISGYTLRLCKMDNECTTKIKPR
From the text: Biological Example 1: Factor XIa Inhibition Assay Utilizing a Fluorophore-Quencher Pair Peptide Substrate
A fluorescence intensity (FLINT) based assay was used to monitor inhibition of Factor XIa. The peptide substrate, 5Fam-KLTRAETV-K5Tamra (purchased from New England Peptide) was chosen based on the FXI sequence. Conversion of zymogen FXI to its activated form, FXIa, occurs by proteolytic cleavage by […] at two sites, Arg146 and Arg180. The custom peptide used in this assay was based on the Arg146 cleavage site of FXI. The peptide substrate was designed with a fluorophore-quencher pair, where the fluorescence is quenched until FXIa cleaves the 8-mer peptide after the Arg residue.
The Factor XIa FLINT assay was used with the following 5Fam-KLTRAETV-K5Tamra assay buffer: 50 mM Tris, pH 7.5, 100 mM NaCl, 5 mM CaCl2), 0.1 mg/mL BSA, 0.03% CHAPS. Assay buffer was prepared by mixing all ingredients fresh. 5Fam-KLTRAETV-K5Tamra peptide substrate was first prepared at 10 mM in 100% DMSO, then diluted to 3 mM in 100% DMSO. Assay buffer was then added directly to the 3 mM stock of substrate to prepare the 30 μM 2× working concentration (15 μM final concentration). The 2× Factor XIa stock solution was prepared by diluting 6.562 μM stock in 1× assay buffer for a […].
Test compound(s) were run in an 11-point, 3-fold serial dilution with a final top compound concentration of 100 nM. Final DMSO in assay was 2%. FXIa was preincubated with compound for 30-minutes and then substrate was added to initiate the reaction. The assay was run with kinetic (KIN) reads at 5 min intervals over 30 minutes. The time course was linear using […] FXIa greater than 30 minutes. More specifically, the assay was run as follows: • 100 nL of 0.01 mM test compound was dispensed into black 384-well non-binding Greiner BioOne 784900 plate for 0.1 μM final concentration; • 5 μL of 1× assay buffer was dispensed to column 24 (low control) and 5 μL 2× Factor XIa solution was dispensed to columns 1-23 (column 23 high control); • the plate was centrifuged with a “cover” plate at 500 rpm for 1 min • the plate was pre-incubated for 30 minutes at room temperature with plate covered; • 5 μL of 2×5Fam-KLTRAETV-K5Tamra peptide substrate was dispensed into the entire plate, columns 1-24; • the plate was centrifuged with a “cover” plate at 500 rpm for 1 min; • the plate was read monitoring fluorescence intensity on the BMG PHERAStar at room temperature, using fluorescence module 485 nm/520 nm.
Percent inhibition (IC50) curves were generated per compound tested, and data was analyzed using a 4-parameter logistic fit using GeneData Screener. The relative fluorescence unit (RFU) values were normalized to percent inhibition using the following equation: % inhibition=((HC−LC)−(compound−LC)/(HC−LC))*100
where LC−low control=mean signal of no Factor XIa or 100% inhibition of Factor XIa; HC−high control=mean signal of Factor XIa+5Fam-KLTRAETV-K5Tamra peptide substrate with DMSO only.
An 11-point dose response curve for the test compound(s) was generated using GENDATA to determine IC50 value based on the following equation: Y=Bottom+(Top−Bottom)/(1+10^((log IC50−X)*HillSlope))
where Y is the % inhibition in the presence of X inhibitor concentration, Top=high control=mean signal of Factor XIa+5Fam-KLTRAETV-K5Tamra peptide substrate with DMSO only; Bottom=low control−mean signal of no Factor XIa or 100% inhibition of Factor XIa; HillSlope−Hill coefficient; and IC50=concentration of compound with 50% inhibition in relation to top/high control.
(§1) Representative compounds of formula (I) of the present invention were tested according to the procedure described in Biological Example 1 and Biological Example 2 above, with results as listed in Table 3, below.

human plasma kallikrein = human plasma kallikrein (Homo sapiens, UniProt P03952); assay: Kallikrein inhibition assay utilizing a quenched AMC peptide substrate (FLINT); format: biochemical; settings: 30 min preincubation, 50 μM Z-Gly-Pro-Arg-AMC, 2 nM kallikrein
Sequence of human plasma kallikrein (P03952 391-638 limits assumed): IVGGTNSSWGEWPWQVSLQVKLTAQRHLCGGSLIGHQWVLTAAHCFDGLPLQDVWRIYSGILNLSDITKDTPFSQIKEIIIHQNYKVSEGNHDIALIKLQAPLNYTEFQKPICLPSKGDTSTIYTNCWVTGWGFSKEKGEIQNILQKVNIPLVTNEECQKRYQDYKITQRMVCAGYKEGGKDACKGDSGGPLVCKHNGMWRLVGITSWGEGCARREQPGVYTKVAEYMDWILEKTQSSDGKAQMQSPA
Sequence of human plasma kallikrein (P03952 20-390 partner limits assumed): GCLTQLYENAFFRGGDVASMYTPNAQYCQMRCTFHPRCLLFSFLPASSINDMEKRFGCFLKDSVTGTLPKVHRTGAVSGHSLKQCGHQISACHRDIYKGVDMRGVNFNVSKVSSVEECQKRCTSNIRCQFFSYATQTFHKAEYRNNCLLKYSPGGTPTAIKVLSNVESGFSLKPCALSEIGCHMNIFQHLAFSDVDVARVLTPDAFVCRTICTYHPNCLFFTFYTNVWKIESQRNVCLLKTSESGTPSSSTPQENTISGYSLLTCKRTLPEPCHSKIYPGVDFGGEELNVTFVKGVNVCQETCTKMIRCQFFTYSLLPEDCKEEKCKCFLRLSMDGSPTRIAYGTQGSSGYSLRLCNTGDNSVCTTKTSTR
From the text: Biological Example 2: Kallikrein Inhibition Assay Utilizing a Quenched AMC Peptide Substrate
A fluorescence intensity (FLINT) based assay was used to monitor inhibition of human plasma kallikrein. The peptide substrate, Z-Gly-Pro-Arg-AMC (Purchased from Bachem; Catalog #1-1150) was chosen based on its relatively low KM for kallikrein which enables running the assay at lower substrate concentrations to control background fluorescence.
The Kallikrein FLINT assay was used with the following Z-Gly-Pro-Arg-AMC assay buffer: 50 mM Tris, pH 7.5, 100 mM NaCl, 5 mM CaCl2), 0.1 mg/mL BSA, 0.03% CHAPS. Assay buffer was prepared by mixing all ingredients fresh. 2× Z-Gly-Pro-Arg-AMC peptide substrate was prepared by diluting 10 mM stock into 1× assay buffer for a 100 μM working concentration (50 μM final concentration). The 2× kallikrein stock solution was prepared by diluting 14.76 μM stock in 1× assay buffer for a 4 nM working stock solution (2 nM final concentration).
Test compound(s) were run in an 11-point, 3-fold serial dilution with a final top compound concentration of 1 μM. Final DMSO in assay was 2%. Plasma kallikrein was pre-incubated for 30-minute with compound and then 50 μM substrate was added to initiate the reaction. The assay was run with kinetic (KIN) reads at 5 min intervals over 30 minutes. The time course was linear using 2 nM kallikrein greater than 30 minutes. More specifically, the assay was run as follows: • 100 nL of 0.1 mM test compound was dispensed into black 384-well non-binding Greiner BioOne 784900 plate for 1 μM final concentration; • 5 μL of 1× assay buffer was dispensed to columns 24 (low control) and 5 μL 2× human kallikrein enzyme solution was dispensed to columns 1-23 (column 23 high control); • the plate was centrifuged with a “cover” plate at 500 rpm for 1 min • the plate was pre-incubated for 30 minutes at room temperature with plate covered; • 5 μL of 2× Z-Gly-Pro-Arg-AMC peptide substrate was dispensed into the entire plate, columns 1-24; • the plate was centrifuged with a “cover” plate at 500 rpm for 1 min; the plate was read monitoring fluorescence intensity on the BMG PHERAStar at room temperature, using fluorescence module 340 nm/440 nm.
Percent inhibition (IC50) curves were generated per compound tested, and data was analyzed using a 4-parameter logistic fit using GeneData Screener. The relative fluorescence unit (RFU) values were normalized to percent inhibition using the following equation: % inhibition=((HC−LC)−(compound−LC)/(HC−LC))*100 where LC—low control=mean signal of human kallikrein enzyme or 100% inhibition of human kallikrein enzyme; HC—high control=mean signal of […]+Z-Gly-Pro-Arg-AMC peptide substrate with DMSO only.
An 11-point dose response curve for the test compound(s) was generated using GENDATA to determine IC50 value based on the following equation: Y=Bottom+(Top−Bottom)/(1+10^((log IC50−X)*HillSlope)) • where Y is the % inhibition in the presence of X inhibitor concentration, Top=high control=mean signal of human kallikrein enzyme+Z-Gly-Pro-Arg-AMC peptide substrate with DMSO only; Bottom=low control−mean signal of no human kallikrein enzyme or 100% inhibition of human kallikrein enzyme; HillSlope—Hill coefficient; and IC50=concentration of compound with 50% inhibition in relation to top/high control.
as §1

[1] = 30 min preincubation, 5Fam-KLTRAETV-K5Tamra substrate 15 μM final, kinetic reads
[2] = cells that print μM themselves in the nM column
[3] = cells that print μM themselves in the nM column, same assay conditions

SMILES | IC50 (Factor XIa; [1]) | Ki (Factor XIa) | IC50 (human plasma kallikrein) | Ki (Factor XIa; [2]) | IC50 (Factor XIa; [3])
Nc1ccc(-c2cnc([C@@H]3CCc4c5c(cc(=O)n43)-c3c(ccc(Cl)c3F)CC3(CCCC3)NC5=O)[nH]2)c(F)n1 (stereo in doubt) [Compound 35, (S*)-12-(5-(6-amino-2-fluoropyridin-3-yl)-1H-imidazol-2-yl)-7-chloro-8-fluoro-13,14-dihydro-2H-spiro[benzo[5,6]azocino[4,3-g]indolizine-3,1′-cyclopentane]-1,10(4H,12H)-dione] | 0.0004 µM | 0.0002 µM | 90 nM | – | –
O=C1NC2(CC2)Cc2ccc(Cl)c(F)c2-c2cc(=O)n3c(c21)CC[C@@H]3c1ncc(-c2ccc3[nH]ccc3c2)[nH]1 (single isomer, unassigned) [Compound 14, (R*)-12-(5-(1H-indol-5-yl)-1H-imidazol-2-yl)-7-chloro-8-fluoro-13,14-dihydro-2H-spiro[benzo[5,6]azocino[4,3-g]indolizine-3,1′-cyclopropane]-1,10(4H,12H)-dione] | – | – | > 10000 nM | 1.02 µM | 2.03 µM
O=C1NC2(CC2)Cc2ccc(Cl)c(F)c2-c2cc(=O)n3c(c21)CC[C@@H]3c1ncc(-c2ccc3scnc3c2)[nH]1 (stereo in doubt) [Compound 26, (R*)-12-(5-(benzo[d]thiazol-5-yl)-1H-imidazol-2-yl)-7-chloro-8-fluoro-13,14-dihydro-2H-spiro[benzo[5,6]azocino[4,3-g]indolizine-3,1′-cyclopropane]-1,10(4H,12H)-dione] | 0.0005 µM | 0.0003 µM | 70 nM | – | –
CN1C(=O)c2c(cc(=O)n3c2CC[C@H]3c2ncc(-c3ccc(N)nc3F)[nH]2)-c2c(ccc(Cl)c2F)CC12CC2 (stereo in doubt) [Compound 41, (S*)-12-(5-(6-amino-2-fluoropyridin-3-yl)-1H-imidazol-2-yl)-7-chloro-8-fluoro-2-methyl-13,14-dihydro-2H-spiro[benzo[5,6]azocino[4,3-g]indolizine-3,1′-cyclopropane]-1,10(4H,12H)-dione] | 0.0086 µM | 0.0043 µM | > 10000 nM | – | –

Other lines, results leading:

IC50 (Factor XIa; [1]) | Ki (Factor XIa) | IC50 (human plasma kallikrein) | Ki (Factor XIa; [2]) | IC50 (Factor XIa; [3]) | SMILES
– | – | > 10000 nM | ~4.81 µM | ~9.61 µM | Cn1cc(-c2cnc(C(CC3CC3)n3cc4c(cc3=O)-c3c(ccc(Cl)c3F)CC3(CC3)NC4=O)[nH]2)ccc1=O (single isomer, unassigned) [Compound 60, (R*)-11-chloro-3-(2-cyclopropyl-1-(5-(1-methyl-6-oxo-1,6-dihydropyridin-3-yl)-1H-imidazol-2-yl)ethyl)-12-fluoro-3H-spiro[benzo[e]pyrido[3,4-c]azocine-7,1′-cyclopropane]-2,5(6H,8H)-dione]
– | – | > 10000 nM | > 5 µM | > 10 µM | Nc1ccc(-c2cnc(C3CCc4c5c(cc(=O)n43)-c3c(ccc(Cl)c3F)-c3ccccc3NC5=O)[nH]2)c(F)n1 (single isomer, unassigned) [Compound 39, (S*)-3-(5-(6-amino-2-fluoropyridin-3-yl)-1H-imidazol-2-yl)-8-chloro-7-fluoro-2,3-dihydrodibenzo[5,6:7,8]azocino[4,3-g]indolizine-5,16(1H,15H)-dione]
– | – | > 10000 nM | > 5 µM | > 10 µM | Cn1cncc1-c1cnc([C@H]2CCc3c4c(cc(=O)n32)-c2c(ccc(Cl)c2F)CC2(CC2)NC4=O)[nH]1 (stereo in doubt) [Compound 51, (R*)-7-chloro-8-fluoro-12-(3′-methyl-3H,3H′-[4,4′-biimidazol]-2-yl)-13,14-dihydro-2H-spiro[benzo[5,6]azocino[4,3-g]indolizine-3,1′-cyclopropane]-1,10(4H,12H)-dione]
0.0003 µM | 0.0001 µM | 90 nM | – | – | Nc1ccc(-c2cnc(C3CCc4c5c(cc(=O)n43)-c3c(ccc(Cl)c3F)CC3(CC3)NC5=O)[nH]2)c(F)n1 (single isomer, unassigned) [Compound 55]
– | – | > 10000 nM | 3.83 µM | 7.65 µM | CC1(C)Cc2ccc(Cl)c(F)c2-c2cc(=O)n3c(c2C(=O)N1)CC[C@H]3c1ncc(-c2ccc(N)nc2F)[nH]1 (single isomer, unassigned) [Compound 20, (S*)-12-(5-(6-amino-2-fluoropyridin-3-yl)-1H-imidazol-2-yl)-7-chloro-8-fluoro-3,3-dimethyl-3,4,13,14-tetrahydrobenzo[5,6]azocino[4,3-g]indolizine-1,10(2H,12H)-dione]
0.928 µM | 0.464 µM | > 10000 nM | – | – | Cn1nncc1-c1cnc([C@@H]2CCc3c4c(cc(=O)n32)-c2c(ccc(Cl)c2F)CC2(CC2)NC4=O)[nH]1 (stereo in doubt) [Compound 42, (S*)-7-chloro-8-fluoro-12-(5-(1-methyl-1H-1,2,3-triazol-5-yl)-1H-imidazol-2-yl)-13,14-dihydro-2H-spiro[benzo[5,6]azocino[4,3-g]indolizine-3,1′-cyclopropane]-1,10(4H,12H)-dione]
